Earlier results in US10352931B2 (priority 2013, dated 2019).

Target: glutamate carboxypeptidase II (Homo sapiens, UniProt Q04609)
Settings: examples of inhibitors, Table 1

glutamate carboxypeptidase II, sequence (Q04609 whole entry, species assumed): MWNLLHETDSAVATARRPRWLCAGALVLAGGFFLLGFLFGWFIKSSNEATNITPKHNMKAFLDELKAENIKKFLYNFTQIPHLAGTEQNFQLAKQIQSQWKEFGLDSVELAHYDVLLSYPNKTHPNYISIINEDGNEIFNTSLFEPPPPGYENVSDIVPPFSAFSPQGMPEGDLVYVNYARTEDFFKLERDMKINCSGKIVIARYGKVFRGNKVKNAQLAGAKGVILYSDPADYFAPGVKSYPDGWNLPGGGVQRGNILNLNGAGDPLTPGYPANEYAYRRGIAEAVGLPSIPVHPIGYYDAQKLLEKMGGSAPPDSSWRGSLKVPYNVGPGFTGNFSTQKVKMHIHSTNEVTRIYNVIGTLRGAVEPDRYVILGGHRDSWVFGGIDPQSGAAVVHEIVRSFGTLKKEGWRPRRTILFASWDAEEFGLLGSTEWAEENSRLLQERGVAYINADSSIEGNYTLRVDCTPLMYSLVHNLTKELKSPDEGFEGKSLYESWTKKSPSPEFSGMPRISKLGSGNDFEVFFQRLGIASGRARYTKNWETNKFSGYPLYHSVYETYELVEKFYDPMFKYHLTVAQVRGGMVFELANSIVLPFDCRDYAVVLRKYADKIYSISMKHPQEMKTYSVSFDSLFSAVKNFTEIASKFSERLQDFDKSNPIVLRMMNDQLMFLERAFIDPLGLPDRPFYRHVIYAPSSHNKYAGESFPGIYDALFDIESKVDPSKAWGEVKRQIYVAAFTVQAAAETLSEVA

For “(S)-2-(hydroxypentafluorophenylmethyl-phosphinoylmethyl)pentanedioic acid”, the IC50 is given as 34 nM.
